SMILES | melting point [°C]
O=C(Nc1ccc(-c2nn(CCO)cc2-c2ccnc(Nc3cccc(F)c3)n2)cc1)N1CCCC1 [Example 54, N-{4-[4-{2-[(3-fluorophenyl)amino]-4-pyrimidinyl}-1-(2-hydroxyethyl)-1H-pyrazol-3-yl]phenyl}-1-pyrrolidinecarboxamide] | 185 to 186
Cn1cc(-c2ccnc(Nc3cccc(CCN4CCOCC4)c3)n2)c(-c2ccc(NC(=O)NC3CC3)cc2)n1 [Example 55, N-cyclopropyl-N′-(4-{1-methyl-4-[2-({3-[2-(4-morpholinyl)ethyl]phenyl}amino)-4-pyrimidinyl]-1H-pyrazol-3-yl}phenyl)urea] | 143 to 145
Cn1ncc(-c2ccnc(Nc3cccc(CCN4CCOCC4)c3)n2)c1-c1ccc(NC(=O)N2CCCC2)cc1 [Example 56, N-(4-{1-methyl-4-[2-({3-[2-(4-morpholinyl)ethyl]phenyl}amino)-4-pyrimidinyl]-1H-pyrazol-5-yl}phenyl)-1-pyrrolidinecarboxamide] | 228 to 230
CCNC(=O)Nc1ccc(-c2nn(C)cc2-c2ccnc(Nc3cccc(CCN4CCOCC4)c3)n2)cc1 [Example 61, N-ethyl-N′-(4-{1-methyl-4-[2-({3-[2-(4-morpholinyl)ethyl]phenyl}amino)-4-pyrimidinyl]-1H-pyrazol-3-yl}phenyl)urea] | 139 to 141

Continued, values first:

melting point [°C] | SMILES
132 to 134 | CN(C)C(=O)Nc1ccc(-c2nn(C)cc2-c2ccnc(Nc3cccc(CCN4CCOCC4)c3)n2)cc1 [Example 65, N,N-dimethyl-N′-(4-{1-methyl-4-[2-({3-[2-(4-morpholinyl)ethyl]phenyl}amino)-4-pyrimidinyl]-1H-pyrazol-3-yl}phenyl)urea]
167 to 168 | O=C(Nc1ccc(-c2nn(CCN3CCOCC3)cc2-c2ccnc(Nc3cccc(F)c3)n2)cc1)N1CCCC1 [Example 84, N-(4-{4-[2-{(3-fluorophenyl)amino]-4-pyrimidinyl}-1-[2-(4-morpholinyl)ethyl]-1H-pyrazol-3-yl}phenyl)-1-pyrrolidinecarboxamide]

— patent US20080242667A1, “Pyrimidinyl-Pyrazole Inhibitors of Aurora Kinases” (SMITHKLINE BEECHAM CORPORATION, priority 2005, published 2008)
